The source of these data is patent US7141560B2, “Alanine 2,6-dialkoxyphenyl ester derivatives as hypnotics” (Akzo Nobel N.V., priority 2001, dated 2006).

The subject of this assay is mice. Put plainly: Hypnotic activity: loss of righting reflex after intravenous injection in mice. The settings on record: intravenous injection over 10 seconds, dose causing loss of righting reflex for minimum 30 seconds in 50% of treated mice; for ED50: Mus musculus, read-out: HD50 (hypnotic dose50). The assay is classed as in vivo. The method, then: The hypnotic potency of the alanine 2,6-dialkoxyphenyl ester derivatives of the invention was determined upon their intravenous administration in mice. The dose required to cause a loss of righting reflex for a minimum period of 30 seconds in 50% of treated mice after intravenous injection over 10 seconds was determined. This dose is termed the HD50 (hypnotic dose50) and is expressed in μmol.kg^−1. These in vivo experiments were carried out as described in detail by Anderson et al., J. Med. Chem. 1997, 40, 1668–1681.

`COCCN(CCOC)C(COC)C(=O)Oc1c(OC)cc(C)cc1OC` (stereo not shown) [Example 51c, (ξ)-2-[N-Bis(2-methoxyethyl)amino]-3-methoxypropionic acid, 2,6-dimethoxy-4-methylphenyl ester]: the “HD50 (hypnotic dose50)” value was found to be 24 µmol/kg.
Turning to `CCOc1cccc(OCC)c1OC(=O)C(CN1CCOCC1)N1CCOCC1` (stereo not shown) [Example 20b, Propanoic acid, 2,3-di(4-morpholinyl), 2,6-diethoxyphenyl ester], the “HD50 (hypnotic dose50)” value is 24 µmol/kg.
On the same count and under the same terms, as for `COc1cccc(OC)c1OC(=O)C(CN1CCOC(C)(C)C1)N1CCOC(C)(C)C1` (stereo not shown) [Example 18b, 2,3-Di-[4-(2,2-dimethylmorpholinyl)]propanoic acid, 2,6-dimethoxyphenyl ester], the figure is 31 µmol/kg.
Turning to `COc1cccc(OC)c1OC(=O)C(CCN1CCOCC1)N1CCOCC1` (stereo not shown) [Example 21a, 2,4-Di-(4-morpholinyl)butanoic acid, 2,6-dimethoxyphenyl ester], the ED50 worked out at 50 µmol/kg.
As for `COC[C@@H](C(=O)Oc1c(OC)cccc1OC)N1CCCOCC1` [Example 52b, 2S-[4-(Hexahyro-1-oxazepinyl)]-3-methoxypropionic acid ,2,6-dimethoxyphenyl ester], the “HD50 (hypnotic dose50)” value was 40 µmol/kg.
For `COCCC(C(=O)Oc1c(OC)cccc1OC)N1CCCOCC1` (stereo not shown) [Example 10a, 2-[4-(Hexahydro-1-oxazepinyl)]-4-methoxybutyric acid, 2,6-dimethoxyphenyl ester], the “HD50 (hypnotic dose50)” value stood at 15 µmol/kg.
The same measure, in the same setting: the same measure for `CCOCCN(CCOCC)C(COC)C(=O)Oc1c(OC)cc(C)cc1OC` (stereo not shown) [Example 3q, 2-[N-Bis(2-ethoxyethyl)amino]-3-methoxypropionic acid, 2,6-dimethoxy-4-methylphenyl ester]: 23 µmol/kg; for `COCCC(C(=O)Oc1c(OC)cc(C)cc1OC)N1CCC(OC)CC1` (stereo not shown) [Example 10k, 4-Methoxy-2-[1-(4-methoxypiperidinyl)]butyric acid, 2,6-dimethoxy4-methylphenyl ester]: 34 µmol/kg.
Turning to `CCOCCC(C(=O)Oc1c(OC)cc(C)cc1OC)N1CCCCCC1` (stereo not shown) [Example 10u, 4-Ethoxy-2-[1-hexahydroazepinyl]butyric acid, 2,6-dimethoxy-4-methylphenyl ester], the ED50 stood at 17 µmol/kg.
For `COCCCN(CCCOC)C(COC)C(=O)Oc1c(OC)cc(C)cc1OC` (stereo not shown) [Example 3p, 2-[N-Bis(3-methoxypropyl)amino]-3-methoxypropionic acid, 2,6-dimethoxy-4-methylphenyl ester], the “HD50 (hypnotic dose50)” value was 46 µmol/kg.
Take `COc1cccc(OC)c1OC(=O)C(CC(=O)N1CCCCC1)N1CCCCC1` (stereo not shown) [Example 34b, Butanedioic, 4-(1-piperidinyl)-4-oxo-, 2-(1-piperidinyl)-1-(2,6-dimethoxyphenyl)ester]: the “HD50 (hypnotic dose50)” value was 39 µmol/kg.
Still for that read-out and setting: as for `COc1cccc(OC)c1OC(=O)C(CC(=O)N1CCCC1)N1CCCCCC1` (stereo not shown) [Example 36, Butanedioic, 2-(1-hexahydroazepinyl)-4-oxo-4-(1-pyrrolidinyl)-, 1-(2,6-dimethoxyphenyl)ester], the figure is 34 µmol/kg.
With `COc1cccc(OC)c1OC(=O)C(CN1CCSCC1)N1CCSCC1` (stereo not shown) [Example 18a, 2,3-Di-(N-thiomorpholinyl)propanoic acid, 2,6-dimethoxyphenyl ester], the ED50 was 15 µmol/kg.
Consider `COC(=O)CC(C(=O)Oc1c(OC)cc(C)cc1OC)N1CCCCCC1` (stereo not shown) [Example 30b, Butanedioic, 2-(1-hexahydroazepinyl)-, 1-(2,6-dimethoxy-4-methyl-phenyl)ester, 4-methyl ester], for which the “HD50 (hypnotic dose50)” value came to 26 µmol/kg.
Still for that read-out and setting: as for `COCCC(C(=O)Oc1c(OC)cccc1OC)N1CCCCCC1` (stereo not shown) [Example 10e, 2-[1-(Hexahydroazepinyl)]-4-methoxybutyric acid, 2,6-dimethoxyphenyl ester], the figure is 17 µmol/kg.
The same measure, in the same setting: the same measure for `COc1cccc(OC)c1OC(=O)C(CN1CCOCC1)N1CCOC[C@H]1C(C)C` (stereo partly shown) [Example 19h]: 21 µmol/kg.
Consider `COCCN(CCOC)C(COC)C(=O)Oc1c(OC)cc(C)cc1OC` (stereo not shown) [Example 4a, 2-[N-Bis(2-methoxyethyl)amino]-3-methoxypropionic acid, 2,6-dimethoxy-4-methylphenyl ester], for which the “HD50 (hypnotic dose50)” value was determined as 28 µmol/kg.
Consider `COc1cccc(OC)c1OC(=O)C(CN1CCOCC1)N1CCc2ccccc2C1` (stereo not shown) [Example 19b, 3-(4-Morpholinyl)-2-(1,2,3,4-tetrahydroisoquinoline)propanoic acid, 2,6-dimethoxyphenyl ester], for which the “HD50 (hypnotic dose50)” value was 29 µmol/kg.
On the same count and under the same terms, the same measure for `COCCN(CCOC)C(COC)C(=O)Oc1c(OC)cccc1OC` (stereo not shown) [Example 3b, 2-[N-Bis(2-methoxyethyl)amino]-3-methoxypropionic acid, 2,6-dimethoxyphenyl ester]: 41 µmol/kg; for `COC(=O)CC(C(=O)Oc1c(OC)cccc1OC)N1CCCCCC1` (stereo not shown) [Example 30a, Butanedioic, 2-(1-hexahydroazepinyl)-, 1-(2,6-dimethoxyphenyl)ester, 4-methyl ester]: 23 µmol/kg.
For `COCC(C(=O)Oc1c(OC)cc(C)cc1OC)N1CCSCC1` (stereo not shown) [Example 3j, 3-Methoxy-2-[N-thiomorpholinyl]propionic acid, 2,6-dimethoxy-4-methylphenyl ester], the ED50 came out at 42 µmol/kg.
In the case of “2-[N-(Bis(2-methoxyethyl)amino)]-4-ethoxybutyric acid, 2,6-dimethoxy-4-methylphenyl ester [Example 10v]”, the “HD50 (hypnotic dose50)” value came to 41 µmol/kg.
